# Measured values: article PMC9841532, “Exploring the Effect of Halogenation in a Series of Potent and Selective A2B Adenosine Receptor Antagonists” (Journal of Medicinal Chemistry, 2022)
# Where two headings read alike, the source gives them in different places.
# Tests used:
# hA3AR = molecular target: T1, hA3AR (Homo sapiens, UniProt P0DMS8); test: Radioligand binding competition, [3H]NECA, membranes from HeLa-A3 cells; details: 1 μM, [3H]NECA, human HeLa cells, n = 2
# T1 construct: expressed in transfected cells; host or cells: HeLa (HeLa-A3) cell membranes
# T1 sequence (P0DMS8 1-318): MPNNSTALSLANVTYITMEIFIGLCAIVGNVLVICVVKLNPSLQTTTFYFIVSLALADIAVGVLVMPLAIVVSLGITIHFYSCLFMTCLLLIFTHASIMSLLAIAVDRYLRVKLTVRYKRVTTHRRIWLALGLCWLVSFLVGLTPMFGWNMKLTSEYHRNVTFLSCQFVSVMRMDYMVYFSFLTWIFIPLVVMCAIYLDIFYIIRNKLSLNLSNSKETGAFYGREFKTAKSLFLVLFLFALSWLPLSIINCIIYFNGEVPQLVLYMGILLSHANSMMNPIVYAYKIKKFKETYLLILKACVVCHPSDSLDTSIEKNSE
# Description: (§1) All ligands reported in Tables 1–5 were obtained and tested as racemic mixtures. The whole set was evaluated in silico with a combination of a Rdkit[37] PAINS filter and Instant JChem from Chemaxon (https://www.chemaxon.com), to rule out the possibility that these ligands can be promiscuous pan-assay interference compounds (PAINS) and to assess their bioavailability, respectively. […] The stereoisomers of selected compounds were obtained by chiral resolution and tested at the four human AR subtypes in their enantiopure forms (Table 6).
# (§2) A brief description is given below. […] Non-specific binding was determined in the presence of 10 μM R-PIA. The reaction mixture was incubated at 25 °C for 60 min. […] The reaction mixture was incubated at 25 °C for 30 min. […] The reaction mixture was incubated at 25 °C for 30 min. […] Non-specific binding was determined in the presence of 100 μM R-PIA. […] After the incubation time, membranes were washed and filtered and radioactivity was detected in a MicroBeta TriLux reader (PerkinElmer).
# hA2AAR = molecular target: T2, hA2AAR (Homo sapiens, UniProt P29274); test: Radioligand binding competition, [3H]ZM241385, membranes from HeLa-A2A cells; details: 1 μM, [3H]ZM241385, human HeLa cells, n = 2
# T2 construct: expressed in transfected cells; host or cells: HeLa (HeLa-A2A) cell membranes
# T2 sequence (P29274 whole entry): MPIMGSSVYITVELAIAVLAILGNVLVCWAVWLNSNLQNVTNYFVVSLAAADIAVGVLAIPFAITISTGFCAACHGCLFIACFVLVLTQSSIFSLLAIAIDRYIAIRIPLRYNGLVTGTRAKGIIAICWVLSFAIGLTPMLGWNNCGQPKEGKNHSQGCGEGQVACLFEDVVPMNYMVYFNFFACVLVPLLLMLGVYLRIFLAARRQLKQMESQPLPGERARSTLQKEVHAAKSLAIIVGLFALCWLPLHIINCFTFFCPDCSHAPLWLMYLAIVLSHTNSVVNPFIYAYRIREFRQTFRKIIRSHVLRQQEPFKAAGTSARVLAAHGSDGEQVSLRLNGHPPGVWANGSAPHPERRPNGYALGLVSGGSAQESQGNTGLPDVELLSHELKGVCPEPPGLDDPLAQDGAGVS
# Description: as §1, §2
# hA1AR = molecular target: T3, hA1AR (Homo sapiens, UniProt P30542); test: Radioligand binding competition, [3H]DPCPX, membranes from CHO-A1 cells; details: 1 μM, [3H]DPCPX, human CHO cells, n = 2
# T3 sequence (P30542 1-326): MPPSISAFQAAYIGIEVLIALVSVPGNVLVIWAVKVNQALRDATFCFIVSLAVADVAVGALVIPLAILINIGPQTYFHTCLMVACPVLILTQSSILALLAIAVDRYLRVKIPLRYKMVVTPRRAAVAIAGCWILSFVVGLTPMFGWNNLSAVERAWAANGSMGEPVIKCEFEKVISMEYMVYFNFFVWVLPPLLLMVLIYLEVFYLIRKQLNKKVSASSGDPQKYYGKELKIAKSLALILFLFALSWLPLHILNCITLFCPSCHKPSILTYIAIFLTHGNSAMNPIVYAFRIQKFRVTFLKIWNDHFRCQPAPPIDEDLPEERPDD
# Description: as §1, §2
# hA2BAR = molecular target: T4, hA2BAR (Homo sapiens, UniProt P29275); test: Radioligand binding competition, [3H]DPCPX, membranes from HEK-293-A2B cells; design: Exp. dG: unit not given here; details: for Ki: read-out: Ki hA2B; for % at 1 μM hA2B (percentage displacement of specific binding): [3H]DPCPX, human HEK-293 cells, n = 2
# T4 construct: host or cells: HEK-293 (HEK-293-A2B) cell membranes
# T4 sequence (P29275 1-332): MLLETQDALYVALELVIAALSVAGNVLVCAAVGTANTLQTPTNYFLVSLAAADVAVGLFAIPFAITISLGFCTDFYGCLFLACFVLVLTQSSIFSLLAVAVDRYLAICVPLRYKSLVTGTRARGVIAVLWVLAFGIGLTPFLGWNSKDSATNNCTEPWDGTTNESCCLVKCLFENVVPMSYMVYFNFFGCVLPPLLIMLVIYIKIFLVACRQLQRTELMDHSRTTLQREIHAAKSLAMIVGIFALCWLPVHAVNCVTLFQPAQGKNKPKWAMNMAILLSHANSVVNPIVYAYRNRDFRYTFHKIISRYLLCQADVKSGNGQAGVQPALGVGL
# Description: as §1, §2
# [1] = displacement of specific [3H]DPCPX binding in human HEK-293 cells, n = 3
SMILES,% at 1 μM hA3 (percentage displacement of specific binding) (hA3AR),% at 1 μM hA2A (percentage displacement of specific binding) (hA2AAR),% at 1 μM hA1 (percentage displacement of specific binding) (hA1AR),Ki (hA2BAR; [1]),Ki (hA2BAR),"Exp. dG (hA2BAR; experimental binding free energy, Supplementary Table S3, unit not given (errors in kcal/mol))",% at 1 μM hA2B (percentage displacement of specific binding) (hA2BAR),Ki hA2B (hA2BAR; [1])
CCOC(=O)C1=C(C)Nc2nc3ccc(Br)cc3n2C1c1ccoc1 (stereo not shown) [15s],19%,1%,10%,318 ± 6 nM,~45 nM,–,–,–
CCOC(=O)C1=C(C)Nc2nc3cc(Cl)ccc3n2C1c1ccco1 (stereo not shown) [16i],4%,10%,23%,8.42 ± 1.4 nM,< 10 nM,-11.01,–,–
CCOC(=O)C1=C(C)Nc2nc3ccc(Cl)cc3n2C1c1cccs1 (stereo not shown) [15m],1%,3%,2%,–,–,–,1%,–
CCOC(=O)C1=C(C)Nc2nc3ccc(F)cc3n2C1c1cccs1 (stereo not shown) [15e],11%,1%,25%,–,–,–,37%,–
CCOC(=O)C1=C(C)Nc2nc3cc(F)c(F)cc3n2C1c1ccsc1 (stereo not shown) [14g],5%,1%,1%,519 ± 7 nM,–,–,–,–
CCOC(=O)C1=C(C)Nc2nc3cc(Cl)c(Cl)cc3n2C1c1ccoc1 (stereo not shown) [14k],6%,34%,33%,54.7 ± 3.2 nM,–,–,–,–
CC1=C(C(=O)OC(C)C)C(c2cccs2)n2c(nc3ccc(F)cc32)N1 (stereo not shown) [15f],6%,2%,11%,–,–,–,23%,–
CC1=C(C(=O)OC(C)C)C(c2ccco2)n2c(nc3cc(Br)c(Br)cc32)N1 (stereo not shown) [14r],21%,28%,11%,62.6 ± 1.9 nM,–,–,–,–
CC1=C(C(=O)OC(C)C)[C@@H](c2ccco2)n2c(nc3cc(F)ccc32)N1 [(S)-16b],12%,–,26%,0.94 ± 0.1 nM,–,–,–,sub-nanomolar
CC1=C(C(=O)OC(C)C)C(c2ccoc2)n2c(nc3ccc(Br)cc32)N1 (stereo not shown) [15t],12%,3%,11%,–,–,–,26%,–
CCOC(=O)C1=C(C)Nc2nc3cc(Br)ccc3n2[C@H]1c1ccoc1 [(S)-16s],10%,16%,11%,–,–,–,34%,–
CC1=C(C(=O)OC(C)C)C(c2ccsc2)n2c(nc3cc(Cl)c(Cl)cc32)N1 (stereo not shown) [14p],6%,1%,2%,359 ± 4 nM,–,–,–,–
CC1=C(C(=O)OC(C)C)C(c2cccs2)n2c(nc3ccc(Cl)cc32)N1 (stereo not shown) [15n],1%,3%,1%,–,–,–,7%,–
